Experiments:
Mus musculus [1] = test: Antinociceptive response as maximal possible effect upon subcutaneous administration in mice at the dose of 15 mg/kg; assay type: functional
[2] = target: Neuronal acetylcholine receptor; test: Binding affinity towards nicotinic acetylcholine receptor (nACh) using [3H](-)-nicotine as radioligand in rat brain; assay type: tissue-based
Mus musculus [3] = test: Antinociceptive response as maximal possible effect upon intrathecal administration in mouse at the dose of 20 mg/kg; assay type: functional
Mus musculus [4] = test: Antinociceptive response as maximal possible effect upon subcutaneous administration in mice at the dose of 10 mg/kg; assay type: functional
Mus musculus [5] = test: Antinociceptive response as maximal possible effect upon intrathecal administration in mouse at the dose of 25 mg/kg; assay type: functional
Mus musculus [6] = test: Antinociceptive response as maximal possible effect upon intrathecal administration in mouse at the dose of 15 mg/kg; assay type: functional
Mus musculus [7] = test: Antinociceptive effect upon subcutaneous administration in mice using tail-flick assay; 12-18; assay type: functional; conditions: sc
Mus musculus [8] = test: Antinociceptive response as maximal possible effect upon subcutaneous administration in mice at the dose of 20 mg/kg; assay type: functional
Mus musculus [9] = test: Antinociceptive effect upon intrathecal administration in mouse using tail-flick assay; 10-19; assay type: functional
Mus musculus [10] = test: Antinociceptive effect upon subcutaneous administration in mice using tail-flick assay; 0.9-2.2; assay type: functional; conditions: sc
Mus musculus [11] = test: Antinociceptive effect upon intrathecal administration in mouse using tail-flick assay; 16-23; assay type: functional
Mus musculus [12] = organism: Mus musculus; test: animal or person; conditions: Tail, sc

CCC[N+](C)(C)CCOc1cccnc1.[Cl-] showed an MPE (Mus musculus [1]) of 1%, a Ki [2] of 29.2 nM and an MPE (Mus musculus [3]) of 3%.

Work on COc1ccc(OCC[N+](C)(C)C)cn1 yielded a Ki [2] of 37 nM.

For CC[N+](C)(C)CCOc1ccc(Br)nc1.[I-], the MPE (Mus musculus [4]) was 0%, the MPE (Mus musculus [5]) was 0% and the Ki [2] was 5 nM.

CC(C)[N+](C)(C)CCOc1cccnc1.[Cl-] was tested, and the MPE (Mus musculus [1]) was 3%, the Ki [2] was 13.8 nM and the MPE (Mus musculus [3]) was 2%.

C[N+](C)(C)CCOc1ccc(Cl)nc1.[I-] gave an MPE (Mus musculus [4]) of 5%, a Ki [2] of 1.3 nM and an MPE (Mus musculus [6]) of 4%.

CN(C)CCOc1cccnc1.O=C(O)C(=O)O gave an ED50 (Mus musculus [7]) of 15 mg/kg.

CC[N+](C)(C)CCOc1cccnc1.[Cl-] was tested, and the MPE (Mus musculus [8]) was 5%, the Ki [2] was 2.2 nM and the ED50 (Mus musculus [9]) was 14 ug mouse-1.

Work on C[N+](C)(C)CCOc1cccnc1.[Cl-] yielded an ED50 (Mus musculus [10]) of 1.4 mg/kg, a Ki [2] of 0.5 nM and an ED50 (Mus musculus [11]) of 19 ug mouse-1.

CN1CCC[C@H]1c1cccnc1 [NICOTINE] gave an ED50 (Mus musculus [12]) of 1.5 mg/kg.

Reference: ChEMBL document CHEMBL1136187, “Quaternary ammonium 3-(aminoethoxy)pyridines as antinociceptive agents” (Bioorg Med Chem Lett, 2003)
